Data as given in patent US20180360025A1, “ARTICLE OF MANUFACTURE AND METHODS FOR INCREASING SURVIVAL OF RED BLOOD CELLS” (Ramot at Tel-Aviv University Ltd., priority 2015, published 2018).

System: CytoD-treated RBC
Experiment: Recovery of CytoD-treated RBCs (Wright Giemsa stain and immunofluorescence)
Assay type: cell-based, human
Settings: CytoD 3 h, immunofluorescence
Method: Cytochalasin D (CytoD) is known to inhibit actin polymerization or depolymerization at barbed ends. The recovery effects of Wnts CM in RBCs was tested after incubation with CytoD in order to evaluate the potential effect of Wnt3/5 on polymerized actin in RBCs (FIGS. 12A-B). As show in FIGS. 12A-B, RBCs incubated with a medium containing Cyto D for 3 h, and then with Wnt 3/5 CM (in the absence of CytoD) for 6 h, were stained using two different methods. […] (FIG. 12B).

Compound: C=C1[C@@H](C)[C@H]2[C@H](Cc3ccccc3)NC(=O)[C@]23[C@H](OC(C)=O)/C=C/[C@@](C)(O)C(=O)[C@@H](C)C/C=C/[C@H]3[C@@H]1O [CytoD, Cytochalasin D]
- actin state in RBCs after CytoD treatment: aggregates of cytoplasm actin
